Test system: P. aeruginosa (ATCC 9027)
Assay: Protocol 3 time-dependent antimicrobial activity at one dose level
Format: cell-based, Pseudomonas aeruginosa
Experimental: The objective of this protocol is to establish a procedure for determining the antimicrobial activity of indolicidin (e.g., L-IND) at 50 μg/ml over an extended exposure time up to 24 hours at room temperature. It is believed that this procedure more closely mimics the recommended use of lens-care products.
Exposure of the test organism to indolicidin occurs in a buffered solution for up to 24 hours with sampling for viability at different time intervals. Polypropylene 96-well microtiter plates and microcentrifuge tubes are used for exposure and dilution of indolicidin, respectively.
The following materials are used: sterile glass tubes containing 5 ml of Mueller-Hinton Broth (MHB), Mueller-Hinton agar plates, sterile 96-well polypropylene microtiter plates, and sterile polypropylene microcentrifuge tubes.
One or more of the following microorganisms are used in assays using this protocol or modification of this protocol: Pseudomonas aeruginosa (ATCC 9027), Pseudomonas aeruginosa (ATCC 27853), and S. aureus (ATCC 6538).
Five 5 ml of MHB tubes are innoculated with the tester strain(s) from MHA plates and grown overnight at 37° C. on a shaker (180 rpm). A micropipet tip is prewet for at least 2 minutes with 100 μl of the stock solution of indolicidin (e.g., L-IND). The test article is dispensed back in the stock solution vial and the pipette is reset to a volume of 10 μl. Polypropylene microcentrifuge tubes are used to dilute the stock of indolicidin (10 mg/ml) 10-fold in sterile water. To obtain a 10× solution of indolicidin with a dose level equivalent to 50 μg/ml dose level dilute 10 μl of the stock solution of indolicidin in 90 μl of sterile water. (The concentration of indolicidin in the final exposure volume of […] will be 5 μg when 10 μl of the 10× solution is added to 100 μl of bacterial suspension). The overnight cultures are washed twice in sterile saline and resuspend in appropriate buffer. The washed culture is diluted in the appropriate buffer to give an estimated 10^6 CFU/ml. Then 10 μl of the 10× test peptide dilutions are added to a predetermined number of wells in the polypropylene microtiter plate. 100 μl of the bacterial suspension is dispensed to the wells in the polypropylene microtiter plate containing the test chemical and mixed well. Controls include one well each for negative controls, i.e., bacteria only sampled at the initiation of the experiment and at the completion of the experiment. The microtiter plate is covered with aluminum foil to shield the exposure mixture from direct light and placed on the bench top at room temperature. At the end of each time interval, the mixture is diluted in an appropriate sterile buffer and plated for viable counts.
Survival is determined by counting the colonies appearing on plates after overnight incubation at 37° C. The results are expressed as CFU/ml and survival is expressed as the percent of the bacteria that survived the treatment.
The purpose of this experiment was to repeat Experiment 4 under identical conditions using P. aeruginosa 9027, with the exception of one additional time point of 60 minutes. The culture was washed 2 times in 10 mM sodium phosphate buffer, pH 7.4.
Protocol 3 was used with the modifications described above. The test organism was P. aeruginosa 9027. L-indolicidin was tested at 50 μg/ml only. Sterile water was used as a solvent for L-IND. 10 mM sodium phosphate buffer, pH 7.4 was used as a vehicle for exposure of bacteria to L-IND. Final incubation volume in polypropylene microtiter plates was 110 μl, and incubation times were 0, 1, 2, 5 and 15 and 60 minutes at room temperature.
This experiment was a repeat of Experiment 6 using the same exposure protocol, but with a prolonged exposure time, namely 24 hours, and using washed cells of an 18-hour old overnight culture of P. aeruginosa inoculated in Mueller-Hinton broth. Incubation times were 0 and 24 hours, at room temperature. […]

SMILES: CC[C@H](C)[C@H](N)C(=O)N[C@@H](CC(C)C)C(=O)N1CCC[C@H]1C(=O)N[C@@H](Cc1c[nH]c2ccccc12)C(=O)N[C@@H](CCCCN)C(=O)N[C@@H](Cc1c[nH]c2ccccc12)C(=O)N1CCC[C@H]1C(=O)N[C@@H](Cc1c[nH]c2ccccc12)C(=O)N[C@@H](Cc1c[nH]c2ccccc12)C(=O)N1CCC[C@H]1C(=O)N[C@@H](Cc1c[nH]c2ccccc12)C(=O)N[C@@H](CCCNC(=N)N)C(=O)N[C@@H](CCCNC(=N)N)C(N)=O [L-indolicidin, H2N-ILPWKWPWWPWRR-CONH2]
- survival (50 μg/ml, 10 mM sodium phosphate buffer, 1, 2 and 5 minutes, room temperature): 100%
- survival (50 μg/ml, 10 mM sodium phosphate buffer, 15 minutes): 19%
- survival reduction (50 μg/ml, 10 mM sodium phosphate buffer, 60 min): ~2 logs
- survival (50 μg/ml, 10 mM sodium phosphate buffer, 24 hours, room temperature): no apparent survival
- log cell reduction (50 μg/ml, 10 mM sodium phosphate buffer, as early as after 1 minute exposure, initial 2.0×10^6 CFU/ml): ~6 log
- survival (50 μg/ml, 10 mM sodium phosphate buffer, exposure time 0 hr): 1.2 × 10^6 CFU/ml
- survival (50 μg/ml, 10 mM sodium phosphate buffer, exposure time 1 hr): 6.5 × 10^5 CFU/ml
- survival (50 μg/ml, 10 mM sodium phosphate buffer, exposure time 2 hr): 1.1 × 10^4 CFU/ml
- survival (50 μg/ml, 10 mM sodium phosphate buffer, exposure time 4 hr): 0 CFU/ml
- survival (50 μg/ml, 10 mM sodium phosphate buffer, exposure time 6 hr): 0 CFU/ml
- survival (50 μg/ml, 10 mM sodium phosphate buffer, exposure time 12 hr): 0 CFU/ml
- survival (50 μg/ml, 10 mM sodium phosphate buffer, up to 15 minutes): 100%
- survival (50 μg/ml, 100 mM sodium phosphate buffer pH 7.4, all time points 0-24 hours): no survival
- viability decrease (50 μg/ml, 100 mM sodium phosphate buffer, 1 and 2 minutes): about 1 log
- colonies on plates (50 μg/ml, 100 mM sodium phosphate buffer, 15 and 60 minutes): No colonies
- colonies on plate seeded with 0.1 ml undiluted exposure mixture (50 μg/ml, 100 mM sodium phosphate buffer, 5 minutes): 34 colonies
- Bacterial growth, Buffer and L-indolicidin 50 μg/ml (100 mM sodium phosphate buffer, incubation time 0 hr): 0
- Bacterial growth, Buffer and L-indolicidin 50 μg/ml (100 mM sodium phosphate buffer, incubation time 24 hr): 0
- survival (50 μ/ml, 10 mM sodium phosphate buffer, after 4 hours exposure): no detectable survival

From patent US6482799B1, “Self-preserving multipurpose ophthalmic solutions incorporating a polypeptide antimicrobial” (The Regents of the University of California, priority 1999, dated 2002)
